# According to patent US11932658B2 (BRISTOL-MYERS SQUIBB COMPANY, priority 2016, dated 2024):
# Molecular target: T1, PAR4 (Homo sapiens, UniProt Q96RI0)
# T1 construct: expressed in transfected cells; host or cells: HEK293 PAR4 Clone 1.2A (BMS Arctic ID 383940)
# T1 sequence (Q96RI0 18-385): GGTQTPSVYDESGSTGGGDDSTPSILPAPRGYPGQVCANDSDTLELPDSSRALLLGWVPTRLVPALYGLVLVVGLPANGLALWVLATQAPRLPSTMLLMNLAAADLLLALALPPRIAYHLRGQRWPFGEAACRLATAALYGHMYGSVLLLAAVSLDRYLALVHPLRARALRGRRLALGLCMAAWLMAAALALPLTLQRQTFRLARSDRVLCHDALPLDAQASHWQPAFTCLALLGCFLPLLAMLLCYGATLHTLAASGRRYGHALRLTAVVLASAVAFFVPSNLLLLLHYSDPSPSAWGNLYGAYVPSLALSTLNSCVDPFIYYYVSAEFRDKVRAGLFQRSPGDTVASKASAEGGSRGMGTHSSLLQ
# Assay: PAR4 FLIPR assay (antagonism of agonist peptide-induced calcium mobilization)
# Format: cell-based
# Excerpt: The FLIPR assay is an exemplary in vitro assay for measuring the activity of the PAR4 antagonists of the present invention. In this assay, intracellular calcium mobilization is induced in PAR4 expressing cells by a PAR4 agonist and calcium mobilization is monitored.
# HEK293 cells stably expressing PAR4 were generated by a standard method of transfection of human PAR4 (F2R23) cDNA expression vector and selected based on PAR4 protein expression or mRNA expression. […] These cells also express endogenous PAR1 and can elicit calcium signal upon stimulation with PAR1 agonist peptide. Therefore, the same cells were also used to determine selectivity against PAR1 and agonist activity for both receptors. Cells from HEK293 PAR4 Clone 1.2A (BMS Arctic ID 383940) were propagated and used for calcium mobilization studies.
# FLIPR-based calcium mobilization assay in HEK293 cells was used to measure PAR4 antagonism, agonism, and selectivity against PAR1. The activity of the PAR4 antagonists of the present invention were tested in PAR4 expressing cells by monitoring H-Ala-Phe(4-F)-Pro-Gly-Trp-Leu-Val-Lys-Asn-Gy-NH2-induced intracellular calcium mobilization. Counter screens for agonist activity and PAR1 antagonist activity were also performed. Briefly, PAR1/PAR4-expressing HEK293 cells were grown in DMEM (Life Technology, Grand Island, NY) containing 10% heat-inactivated FBS, 1% Penicillin-Streptomycin, 10 μg/mL blasticidin, and 100 μg/mL Zeocin at 37° C. with 5% CO2. Cells were plated overnight prior to the experiment in a black 384-well Purecoat Amine clear bottom plate (Becton Dickinson Biosciences, San Jose, CA) at 10,000 cells/well in 30 μL growth medium and incubated in a humidified chamber at 37° C. with 5% CO2 overnight. Prior to compound addition, the cell medium was replaced with 40 μL of 1× calcium and magnesium-containing Hank's Balanced Saline Solution (HBSS) (with 20 mM HEPES) and 1:1000 diluted fluorescent calcium indicator (Codex Biosolutions, Gaithersburg, MD). After a 30 minute incubation period at 37° C. and a further 30 minute incubation and equilibration period at room temperature, 20 μL test compound (diluted in 1×HBSS buffer) was added at various concentrations at 0.17% dimethyl sulfoxide (DMSO) final concentration. Changes in fluorescence intensity were measured using a Functional Drug Screening System (FDSS, Hamamatsu, Japan) to determine agonist activities. The cells were then incubated for 30 minutes at room temperature followed by addition of 20 μL of agonist peptide for antagonist activity measurement. […] Compound potency was derived from 11-point concentration-response curves.
row,Structure (SMILES),IC50 [nM]
1,"COc1cnc2c(-c3nc4c(Cl)cc5c(c4s3)OC[C@H](COC(=O)Nc3ccnc(C)c3)O5)cc(C)cc2n1 [Example 33, (R)-(4-chloro-2-(2-methoxy-7-methylquinoxalin-5-yl)-7,8-dihydro-[1,4]dioxino[2′,3′:3,4]benzo[1,2-d]thiazol-7-yl)methyl (2-methylpyridin-4-yl)carbamate]",2.8
2,"COc1cnc2c(-c3nc4c(C)cc5c(c4s3)OCC(COC(=O)Nc3cnc4[nH]ccc4c3)O5)cc(C)cc2n1 (centres unmarked) [Example 142, (2-(2-methoxy-7-methylquinoxalin-5-yl)-4-methyl-7,8-dihydro-[1,4]dioxino[2′,3′:3,4]benzo[1,2-d]thiazol-7-yl)methyl 1H-pyrrolo[2,3-b]pyridin-5-ylcarbamate]",2.9
3,"COc1cnc2c(-c3nc4cc(F)c5c(c4s3)[C@H](C)[C@@H](CO)O5)cc(C)cc2n1 [Example 238, ((7S,8S)-5-fluoro-2-(2-methoxy-7-methylquinoxalin-5-yl)-8-methyl-7,8-dihydrobenzofuro[5,4-d]thiazol-7-yl)methanol]",1.3
4,"COc1cnc2c(-c3nc4ccc5c(c4s3)OC[C@H](COC(=O)Nc3cnc(OC[C@@H](C)O)nc3)O5)cc(Cl)cc2c1 [Example 289, ((R)-2-(6-chloro-3-methoxyquinolin-8-yl)-7,8-dihydro-[1,4]dioxino[2′,3′:3,4]benzo[1,2-d]thiazol-7-yl)methyl (2-((R)-2-hydroxypropoxy)pyrimidin-5-yl)carbamate]",1.8
5,"COc1cnc2c(-c3nc4cc(F)c5c(c4s3)C[C@@H](CNC(=O)OCC(C)(C)C)O5)cc(C)cc2n1 [Example 261, (S)-neopentyl ((5-fluoro-2-(2-methoxy-7-methylquinoxalin-5-yl)-7,8-dihydrobenzofuro[5,4-d]thiazol-7-yl)methyl)carbamate]",1.1
6,"COc1cnc2c(-c3nc4c(C)cc5c(c4s3)OCC(COC(=O)Nc3cnc4c(c3)ncn4C)O5)cc(C)cc2n1 (centres unmarked) [Example 129, (2-(2-methoxy-7-methylquinoxalin-5-yl)-4-methyl-7,8-dihydro-[1,4]dioxino[2′,3′:3,4]benzo[1,2-d]thiazol-7-yl)methyl (3-methyl-3H-imidazo [4,5-b]pyridin-6-yl)carbamate]",1.6
7,"COC(=O)NC[C@@H]1Cc2c(c(F)cc3nc(-c4cc(C)cc5nc(OC)cnc45)sc23)O1 [Example 210, (S)-methyl ((5-fluoro-2-(2-methoxy-7-methylquinoxalin-5-yl)-7,8-dihydrobenzofuro[5,4-d]thiazol-7-yl)methyl)carbamate]",2.9
8,"COc1cnc2c(-c3nc4cc(F)c5c(c4s3)C[C@H](COC(=O)Nc3cnc(CCO)nc3)O5)cc(C)cc2n1 [Example 155, (R)-(5-fluoro-2-(2-methoxy-7-methylquinoxalin-5-yl)-7,8-dihydrobenzofuro[5,4-d]thiazo 1-7-yl)methyl (2-(2-hydroxyethyl)pyrimidin-5-yl)carbamate]",13
9,"COc1cnc2c(-c3nc4cc(F)c5c(c4s3)C[C@@](C)(COP(=O)(O)O)O5)cc(C)cc2n1 [Example 237, (S)-(5-fluoro-2-(2-methoxy-7-methylquinoxalin-5-yl)-7-methyl-7,8-dihydrobenzofuro[5,4-d]thiazol-7-yl)methyl dihydrogen phosphate]",40
10,"COc1cnc2c(-c3nc4c(C(F)F)cc5c(c4s3)OCC(COC(=O)Nc3ccnc(C)c3)O5)cc(C)cc2n1 (centres unmarked) [Example 74, (4-(difluoromethyl)-2-(2-methoxy-7-methylquinoxalin-5-yl)-7,8-dihydro-[1,4]dioxino[2′,3′:3,4]benzo[1,2-d]thiazol-7-yl)methyl (2-methylpyridin-4-yl)carbamate]",8.6
11,"COc1cnc2c(-c3nc4c(C)cc5c(c4s3)OCC(COC(=O)Nc3ccnc(-c4ccccc4)c3)O5)cc(C)cc2n1 (centres unmarked) [Example 117, (2-(2-methoxy-7-methylquinoxalin-5-yl)-4-methyl-7,8-dihydro-[1,4]dioxino[2′,3′:3,4]benzo[1,2-d]thiazol-7-yl)methyl (2-phenylpyridin-4-yl)carbamate]",1.1
12,"COc1cnc2c(-c3nc4cc(F)c5c(c4s3)C[C@H](COC(=O)Nc3ccc(-c4ncco4)cc3)O5)cc(C)cc2n1 [Example 207, (R)-(5-fluoro-2-(2-methoxy-7-methylquinoxalin-5-yl)-7,8-dihydrobenzofuro[5,4-d]thiazo 1-7-yl)methyl (4-(oxazol-2-yl)phenyl)carbamate]",2.2
13,"COc1cnc2c(-c3nc4c(Cl)cc5c(c4s3)OC[C@H](COC(=O)Nc3ccccc3)O5)cc(C)cc2n1 [Example 26, (R)-(4-chloro-2-(2-methoxy-7-methylquinoxalin-5-yl)-7,8-dihydro-[1,4]dioxino[2′,3′:3,4]benzo[1,2-d]thiazol-7-yl)methyl phenylcarbamate]",10

# The remaining molecules from weak to strong by IC50, led by results:
row,IC50 [nM],Structure (SMILES)
1,160,"COc1cc(NC(=O)OC[C@H]2Cc3c(c(F)cc4nc(-c5cc(C)cc6nc(OC)cnc56)sc34)O2)ccn1 [Example 163, (R)-(5-fluoro-2-(2-methoxy-7-methylquinoxalin-5-yl)-7,8-dihydrobenzofuro[5,4-d]thiazo 1-7-yl)methyl (2-methoxypyridin-4-yl)carbamate]"
2,25,"COc1cnc2c(-c3nc4c(C)cc5c(c4s3)OC[C@H](COC(=O)Nc3ccncc3)O5)cc(C)cc2n1 [Example 48, (R)-(2-(2-methoxy-7-methylquinoxalin-5-yl)-4-methyl-7,8-dihydro-[1,4]dioxino[2′,3′:3,4]benzo[1,2-d]thiazol-7-yl)methyl pyridin-4-ylcarbamate]"
3,15,"COc1cnc2c(-c3nc4c(C(O)C(C)(C)C)cc5c(c4s3)OCCCO5)cc(C)cc2n1 (centres unmarked) [Example 264, 1-(2-(2-methoxy-7-methylquinoxalin-5-yl)-8,9-dihydro-7H-[1,4]dioxepino[2′,3′:3,4]benzo[1,2-d]thiazol-4-yl)-2,2-dimethylpropan-1-ol]"
4,9,"COc1cnc2c(-c3nc4c(F)cc5c(c4s3)OC(COC(=O)Nc3ccccc3)CO5)cc(C)cc2n1 (centres unmarked) [Example 24, (4-fluoro-2-(2-methoxy-7-methylquinoxalin-5-yl)-7,8-dihydro-[1,4]dioxino[2′,3′:3,4]benzo[1,2-d]thiazol-8-yl)methyl phenylcarbamate]"
5,2.8,"COc1cnc2c(-c3nc4c(C)cc5c(c4s3)OC[C@H](COC(=O)Nc3cccnc3)O5)cc(CO)cc2n1 [Example 101, (R)-(2-(7-(hydroxymethyl)-2-methoxyquinoxalin-5-yl)-4-methyl-7,8-dihydro-[1,4]dioxino[2′,3′:3,4]benzo[1,2-d]thiazol-7-yl)methyl pyridin-3-ylcarbamate]"
6,1.5,"COc1cnc2c(-c3nc4c(Cl)cc5c(c4s3)OC[C@H](COC(=O)Nc3ccc4[nH]c(=O)oc4c3)O5)cc(C)cc2n1 [Example 66, (R)-(4-chloro-2-(2-methoxy-7-methylquinoxalin-5-yl)-7,8-dihydro-[1,4]dioxino[2′,3′:3,4]benzo[1,2-d]thiazol-7-yl)methyl (2-oxo-2,3-dihydrobenzo[d]oxazol-6-yl)carbamate]"
7,1,"COc1cnc2c(-c3nc4cc(F)c5c(c4s3)C[C@H](COC(=O)Nc3ccc(OCCO)nc3)O5)cc(C)cc2n1 [Example 165, (R)-(5-fluoro-2-(2-methoxy-7-methylquinoxalin-5-yl)-7,8-dihydrobenzofuro[5,4-d]thiazo 1-7-yl)methyl (6-(2-hydroxyethoxy)pyridin-3-yl)carbamate]"
